Reference: patent publication US20130136714A1, “FUNCTIONALIZED POLYMER NANOPARTICLES AND THE PHARMACEUTICAL USE THEREOF” (KAOHSIUNG MEDICAL UNIVERSITY, priority 2011, published 2013)
pKd: −log10 of the molar value. Converted amounts (≈) assume the structure as drawn.

Legend:
[1] = target: folic acid receptors (FAR); settings: read-out: dissociation constant (kd); cited from earlier work
KB cell line = experiment: intracellular delivery by confocal laser scanning microscope; format: cell-based, human; settings: 0.625 μg/mL, cells incubated for 1 h
Procedure: Human oral cancer cell line (KB cell line) is used to investigate the cell viability of the carrier and the drug-loaded micelle, and the expression of the drug-loaded micelle through the endocytosis is observed using a confocal laser scanning microscope (CLSM). The 4′,6-diamidino-2-phenylindole (DAPI) and the lysosomal probe (Lyso-Traker) are used for cell core staining and the lysosome staining, respectively. The drug at the concentration of 0.625 μg/mL is added according to the cell viability for the drug-loaded micelle. The KB cell line is cultured for 0.5, 1, 3, and 24 hrs, in which the blue parts are shown by the DAPI staining at the cell core; the red is the fluorescence of the EPI; the green is the fluorescence of the Lyso-Traker, and the purple is the overlap of EPI and DAPI and the yellow is the overlap of Lyso-Traker and EPI. The amounts of EPI entering the nuclei and the lysosomes (the purple and the yellow images) increase with the increase in the incubation time.
Intracellular delivery is observed using the confocal microscope. 18 mm cover slip is immersed in 0.1N HCl solution for one day and washed to remove the impurities on the slide. After being rinsed by the ddH2O, the slide is wiped and then immersed in 75% alcohol. […]

[2] = drug release of EPI micelles by dialysis in PBS buffer; format: physicochemical; settings: pH = 7.4, 6.4 and 5.6
Procedure: […] The outside PBS buffer is collected at different time points and then the fresh 30 mL PBS buffer is replaced. The drug concentration is measured and calculated based on a calibration curve generated in PBS buffer with the same pH value.

KB cells = experiment: cytotoxic test (IC50) for the EPI-loaded micelles (MTT); format: cell-based; settings: Homo sapiens
Procedure: The results of the cytotoxic test for the drug-loaded micelle are presented as the half maximal inhibitory concentration, i.e. IC50, which is used to examine the biological or biochemical inhibitory effect of a compound. Thus, the IC50 represents the concentration of the drug-loaded micelle required to inhibit the growth of a half of the cancer cells.
5×10^3 cells/well KB cells are incubated in 100 μL of RPMI 1640 medium, and transferred into the 96-well plate for incubating 24 hrs.
Epirubicin.HCl and drug-loaded micelle is prepared at 20 μg/mL, in RPMI 1640 medium. After a serial of dilution, 100 μL/well of each concentration (20, 10, 5, 2.5, 1.25, 1 and 0.5 μg/mL) is added into the cultured plate for 24 hrs incubation.
After 24 hrs incubation, the medium containing the drug and the micelle is removed, and the plate is washed with 100 μL/well PBS buffer at pH=7.4 and further incubated in 100 μL/well fresh medium for 24 and 48 hrs.
The plate is added with 50 μL/well (2 mg/mL) MTT and placed in the incubator for 3 hrs. […] Then, the cell viability is calculated using the ELISA reader.

drug release rate (in words) [2]	Structure (SMILES)	pKd [1]	intracellular location of EPI fluorescence (KB cell line)	IC50 (KB cells; incubating time 24 hr)	IC50 (KB cells; incubating time 48 hr)
	Nc1nc2ncc(CNc3ccc(C(=O)N[C@@H](CCC(=O)O)C(=O)O)cc3)nc2c(=O)[nH]1 [folic acid]	10.00			
quickly released in a short time	COc1cccc2c1C(=O)c1c(O)c3c(c(O)c1C2=O)C[C@@](O)(C(=O)CO)C[C@@H]3O[C@H]1C[C@H](N)[C@@H](O)[C@H](C)O1 [EPI, Epirubicin]		observed in the cell nuclei rather than in cytoplasm	0.35 µg/mL (≈ 0.644 µM)	0.2 µg/mL (≈ 0.368 µM)
